Test results published in patent US11110102B2, “Antifungal agents used in combination” (Scynexis, Inc., priority 2017, dated 2021).
Several values for one entry are separate records, joined by “and”; a condition that tells them apart may be missing. Equal entries are not always repeated. Where two headings read alike, the source gives them in different places.

How the values were obtained:
Assay in all cases: Checkerboard combination MIC testing
Assay type in all cases: cell-based, Aspergillus fumigatus
A. fumigatus MRL #28382 = conditions: A. fumigatus MRL 28382 (wild-type), read at 48 hours, duplicate; for MIC: Aspergillus fumigatus, SCY078, 48 h
Source text: (§1) To determine the type of interaction between a representative compound of the enfumafungin derivatives (SCY-078) with several antifungal agents against Aspergillus fumigatus, the most frequent mold causing invasive disease in humans, the checkerboard method was used. The citrate salt of the compound was used in the studies.
(§2) The checkerboard method involves the determination of percent growth inhibition of fungal cells in the presence of different combinations of drugs. Percent growth inhibition is calculated relative to growth in control wells which contain only cells and no drug. The assay was performed in 96-well microplates in which each row and each column contained twofold serial dilutions of drug A and drug B at concentrations ranging from 0 to slightly higher than their minimum inhibitory concentration (MIC). […] Then the inoculum was added to each well and the growth was evaluated after 48 hrs incubation to determine the first well in which growth was inhibited. The checkerboard-based determination of MICs of antifungal agents in combination was followed by further analysis employing the nonparametric fractional inhibitory concentration index (FICI), which is defined by the following equation:
(§3) [formula] where MIC-A and MIC-B are the MICs of drugs A and B, respectively.
(§4) Each drug was initially diluted in either sterile, distilled water or in DMSO, depending on whether the drug was water-soluble or water-insoluble, respectively.
(§5) Stock solution of SCY-078 was prepared in DMSO at 200 times the concentration desired for use in the drug plates. Serial dilutions of stock solution were conducted in DMSO to obtain eleven 2-fold dilutions of the drug. The SCY-078 solution was then diluted to 4 times the desired concentration in RPMI-1640 medium so that the DMSO would not limit growth of the organism and so that the quantity of DMSO was the same for every dilution.
(§6) Two 96-well plates are needed to conduct a combination test. Using a multichannel pipette, 50 μl of the lowest concentration of the first drug (Drug A) was added to each well of column 1 of the first plate (plate A) and column 1 of the second plate (plate B; rows A-D). Then, 50 μl of the next highest working dilution of Drug A was added to each well in column 2, continuing with dilutions until all columns 1-11 were filled. Column 12 was left empty. 50 μl of the lowest concentration of Drug B was added to each well in Row D of plate B. 50 μl of the next highest working dilution of Drug B was added to each well in row C of plate B, continuing with dilutions until all rows through row B of plate A were filled.
(§7) Following the above, 100 μl of organism inoculum was added to every well. The plates were then incubated for 48 hours and visually read after incubation.
(§8) The objective of the study was to determine whether the combination of SCY-078 with voriconazole, isavuconazole, or amphotericin B would result in a combined in vitro antifungal activity exceeding the sum of the activities of each drug alone. Combination MIC testing was performed using the checkerboard assay described above.
(§9) Initial MIC determinations of the individual antifungals were performed according to the Clinical and Laboratory Standards Institute (CLSI) M38-A2 standard for the susceptibility testing of filamentous fungi.
(§10) Combination MIC testing was performed using a checkerboard test method according to the Center for Medical Mycology SOP A11.3. The checkerboard combination test method is a modification of the microdilution antifungal susceptibility test wherein two test compounds are combined in varying concentrations to determine whether they have synergistic, antagonistic, or no effect on the respective MIC values.
(§11) Antifungals were serially diluted two-fold in RPMI medium to produce eleven concentrations each and were combined in wells of a microtiter plate. Two rows consisting of serial dilutions of each individual drug were included. All combination testing was conducted in duplicate. […]

A. fumigatus MRL #28401 = conditions: A. fumigatus MRL 28401 (wild-type), read at 48 hours, duplicate; for MIC per drug in Combination: SCY-078 combined with isavuconazole; for MIC: Aspergillus fumigatus, SCY078, 48 h
Source text: as §1, §2, §3, §4, §5, §6, §7, §8, §9, §10, §11

A. fumigatus MRL #28383 = conditions: A. fumigatus MRL 28383 (azole-resistant), read at 48 hours, duplicate; for MIC: Aspergillus fumigatus, SCY078, 48 h, drug alone
Source text: as §1, §2, §3, §4, §5, §6, §7, §8, §9, §10, §11

A. fumigatus MRL #20438 = conditions: A. fumigatus MRL 20438 (wild-type), read at 48 hours, duplicate; for MIC per drug in Combination: SCY-078 combined with isavuconazole; for MIC: Aspergillus fumigatus, SCY078, 48 h
Source text: as §1, §2, §3, §4, §5, §6, §7, §8, §9, §10, §11

A. fumigatus MRL #28378 = conditions: A. fumigatus MRL 28378 (wild-type), read at 48 hours, duplicate; for MIC per drug in Combination: SCY-078 combined with isavuconazole; for MIC: Aspergillus fumigatus, SCY078, 48 h
Source text: as §1, §2, §3, §4, §5, §6, §7, §8, §9, §10, §11

[1] = SCY-078 combined with isavuconazole
[2] = drug alone, SCY-078/isavuconazole test, read-out: MIC per drug Alone
[3] = SCY-078/isavuconazole test, read-out: MIC per drug Alone
[4] = drug alone, SCY-078/amphotericin B test
[5] = drug alone, SCY-078/isavuconazole test
[6] = drug alone, SCY-078/amphotericin B test, read-out: MIC Alone
[7] = drug alone, SCY-078/voriconazole test, read-out: MIC Alone
[8] = SCY-078 combined with amphotericin B
[9] = SCY-078 combined with voriconazole
[10] = drug alone, SCY-078/voriconazole test

## C[C@@H](c1nc(-c2ccc(C#N)cc2)cs1)[C@](O)(Cn1cncn1)c1cc(F)ccc1F [Isavuconazole, isavuconazole]
A. fumigatus MRL #28382; [1]
  MIC per drug in Combination: 0.25 µg/mL
A. fumigatus MRL #28401
  MIC per drug in Combination: 0.25 µg/mL
A. fumigatus MRL #28401; [2]
  MIC: 1 µg/mL
A. fumigatus MRL #28383; [1]
  MIC per drug in Combination: >8 µg/mL and 4 µg/mL
A. fumigatus MRL #28383; [3]
  MIC: > 8 µg/mL
A. fumigatus MRL #20438
  MIC per drug in Combination: 0.5 µg/mL
A. fumigatus MRL #20438; [2]
  MIC: 1 µg/mL
A. fumigatus MRL #28378
  MIC per drug in Combination: 0.125 µg/mL and 0.25 µg/mL
A. fumigatus MRL #28378; [2]
  MIC: 1 µg/mL

## CC(C)[C@@H](C)[C@@]1(C)CC[C@]2(C)[C@H]3CC[C@@H]4[C@@]5(COC[C@@]4(C)[C@@H](OC[C@](C)(N)C(C)(C)C)[C@H](n4ncnc4-c4ccncc4)C5)C3=CC[C@@]2(C)[C@@H]1C(=O)O [SCY-078, (1S,4aR,6aS,7R,8R,10aR,10bR,12aR,14R,15R)-15-[[(2R)-2-amino-2,3,3-trimethylbutyl]oxy]-8-[(1R)-1,2-dimethylpropyl]-14-[5-(4-pyridinyl)-1H-1,2,4-triazol-1-yl]-1,6,6a,7,8,9,10,10a,10b,11,12,12a-dodecahydro-1,6a,8,10a-tetramethyl-4H-1,4a-propano-2H-phenanthro[1,2-c]pyran-7-carboxylic acid]
A. fumigatus MRL #28382; [4]
  MIC Alone: 8 µg/mL
A. fumigatus MRL #28382; [5]
  MIC per drug Alone: 4 µg/mL
A. fumigatus MRL #28382; [6]
  MIC: 4 µg/mL
A. fumigatus MRL #28382; [2]
  MIC: 8 µg/mL
A. fumigatus MRL #28382; [7]
  MIC: 8 µg/mL
A. fumigatus MRL #28401; [8]
  MIC in Combination: 0.016 µg/mL and 0.031 µg/mL
A. fumigatus MRL #28401
  MIC per drug in Combination: 0.25 µg/mL and 0.5 µg/mL
A. fumigatus MRL #28401; [9]
  MIC in Combination: 0.25 µg/mL and 0.125 µg/mL
A. fumigatus MRL #28401; [4]
  MIC Alone: 8 µg/mL
A. fumigatus MRL #28401; [5]
  MIC per drug Alone: 8 µg/mL
A. fumigatus MRL #28401; [6]
  MIC: 4 µg/mL
A. fumigatus MRL #28401; [2]
  MIC: 4 µg/mL
A. fumigatus MRL #28401; [7]
  MIC: 8 µg/mL
A. fumigatus MRL #28383; [8]
  MIC in Combination: 0.016 µg/mL
A. fumigatus MRL #28383; [9]
  MIC in Combination: 0.031 µg/mL
A. fumigatus MRL #28383; SCY-078/amphotericin B test, read-out: MIC Alone
  MIC: 4 µg/mL
A. fumigatus MRL #28383; [3]
  MIC: 4 µg/mL
A. fumigatus MRL #28383; SCY-078/voriconazole test, read-out: MIC Alone
  MIC: 8 µg/mL
A. fumigatus MRL #20438; [8]
  MIC in Combination: 0.016 µg/mL
A. fumigatus MRL #20438
  MIC per drug in Combination: 0.016 µg/mL
A. fumigatus MRL #20438; [9]
  MIC in Combination: 0.125 µg/mL and 0.25 µg/mL
A. fumigatus MRL #20438; [10]
  MIC Alone: 4 µg/mL
A. fumigatus MRL #20438; [6]
  MIC: 4 µg/mL
A. fumigatus MRL #20438; [2]
  MIC: 4 µg/mL
A. fumigatus MRL #20438; [7]
  MIC: 8 µg/mL
A. fumigatus MRL #28378; [8]
  MIC in Combination: 0.016 µg/mL
A. fumigatus MRL #28378
  MIC per drug in Combination: 0.125 µg/mL
A. fumigatus MRL #28378; [9]
  MIC in Combination: 0.5 µg/mL
A. fumigatus MRL #28378; [10]
  MIC Alone: 4 µg/mL
A. fumigatus MRL #28378; [6]
  MIC: 4 µg/mL
A. fumigatus MRL #28378; [2]
  MIC: 4 µg/mL
A. fumigatus MRL #28378; [7]
  MIC: 8 µg/mL
